Here are results for 28 compounds from patent US9868720B2 (Genentech, Inc., priority 2013, dated 2018).

SMILES strings stand for the structures.

DLK kinase (N-terminally GST-tagged DLK, catalytic domain amino acid 1-520), sequence (Q12852 1-520): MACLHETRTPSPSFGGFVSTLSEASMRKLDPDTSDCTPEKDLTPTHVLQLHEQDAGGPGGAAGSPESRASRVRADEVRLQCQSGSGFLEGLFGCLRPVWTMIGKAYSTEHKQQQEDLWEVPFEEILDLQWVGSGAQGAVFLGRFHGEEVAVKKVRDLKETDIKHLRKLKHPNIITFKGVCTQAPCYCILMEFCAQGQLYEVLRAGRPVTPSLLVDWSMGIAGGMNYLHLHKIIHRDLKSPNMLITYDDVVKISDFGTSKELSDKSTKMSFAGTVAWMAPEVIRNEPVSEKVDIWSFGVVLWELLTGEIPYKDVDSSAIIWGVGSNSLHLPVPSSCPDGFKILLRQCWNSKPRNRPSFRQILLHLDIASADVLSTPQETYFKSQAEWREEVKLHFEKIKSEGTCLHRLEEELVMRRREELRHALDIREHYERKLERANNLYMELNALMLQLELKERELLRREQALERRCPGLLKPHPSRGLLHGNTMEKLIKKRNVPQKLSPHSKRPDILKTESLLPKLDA

This assay deals with DLK kinase (N-terminally GST-tagged DLK, catalytic domain amino acid 1-520) (Homo sapiens (Human), UniProt Q12852). The experiment in a line: DLK TR-FRET assay. Format: biochemical. Conditions: 30 μM ATP, MKK4 K131M substrate, read-out: DLK HTRF (Ki). On the procedure:
DLK TR-FRET assay: DLK kinase reactions (20 μL) containing 5 nM N-terminally GST-tagged DLK (catalytic domain amino acid 1-520) (Carna Bioscience), 40 nM N-terminally HIS-tagged MKK4 K131M substrate, and 30 μM ATP in kinase reaction buffer (50 mM HEPES, pH 7.5, 0.01% Triton X-100, 0.01% Bovine γ-Globulins, 2 mM DTT, 10 mM MgCl2 and 1 mM EGTA), and testing compound 1:3 serial diluted starting at 20 uM were incubated at ambient temperature for 60 minutes in 384 well OptiPlate (Perkin Elmer). To quench kinase reactions and detect phosphorylated MKK4, 15 μL of TR-FRET antibody mixture containing 2 nM anti-phosphorylated MKK4 labeled with Europium cryptate (Cisbio) and 23 nM anti-HIS labeled with D2 (Cisbio) in detection buffer (25 mM Tris pH 7.5, 100 mM NaCl, 100 mM EDTA, 0.01% Tween-20, and 200 mM KF) was added to the reaction mixture. The detection mixture was incubated for 3 hours at ambient temperature and the TR-FRET was detected with an EnVision multilabel plate reader (Perkin-Elmer) using the LANCE/DELFIA Dual Enh label from Perkin-Elmer (excitation filter: UV2 (TRF) 320 and emission filters: APC 665 and Europium 615).
A word on the Ki: it is the equilibrium dissociation constant of an inhibitor or competing ligand from its target. As for `CC(=O)N1CCC(c2cc(Nc3cc(C(F)(F)F)ccn3)nc(N3CCC[C@H]3C)n2)CC1` [Example 175, 1-{4-[2-((R)-2-Methyl-pyrrolidin-1-yl)-6-(4-trifluoromethyl-pyridin-2-ylamino)-pyrimidin-4-yl]-piperidin-1-yl}-ethanone], the Ki turned out to be 2.2 nM.

Turning to `CC1CCCN1c1nc(Nc2cc(C(F)(F)F)ccn2)cc(C2CCN(C(=O)CC#N)CC2)n1` (stereo not shown) [Example 177, 3-{4-[2-(2-Methyl-pyrrolidin-1-yl)-6-(4-trifluoromethyl-pyridin-2-ylamino)-pyrimidin-4-3yl]-piperidin-1-yl}-3-oxo-propionitrile], the Ki amounted to 8.03 nM.

Regarding `O=C(C(F)F)N1CCCC(c2cc(Nc3cc(C(F)(F)F)ccn3)nc(N3CCC(F)(F)C3)n2)C1` (stereo not shown) [Example 178, 1-{3-[2-(3,3-Difluoro-pyrrolidin-1-yl)-6-(4-trifluoromethyl-pyridin-2-ylamino)-pyrimidin-4-yl]-piperidin-1-yl}-2,2-difluoro-ethanone], the Ki amounted to 26.8 nM. The result for `CC1CC1C(=O)N1CCC(c2cc(Nc3cc(C(F)(F)F)ccn3)nc(N3CCC(F)(F)C3)n2)C1` (stereo not shown) [Example 180] reads 46.2 nM; that for `O=C(C1CC1)N1CCC(c2cc(Nc3cc(C(F)(F)F)ccn3)nc(N3CCC(F)(F)C3)n2)C1` (stereo not shown) [Example 184, Cyclopropyl-{3-[2-(3,3-difluoro-pyrrolidin-1-yl)-6-(4-trifluoromethyl-pyridin-2-ylamino)-pyrimidin-4-yl}-pyrrolidin-1-yl}-methanone], 41.5 nM; that for `CC(C)Cc1nc(Nc2cc(C(F)(F)F)ccn2)cc(C2CCCN(C(=O)C(F)F)C2)n1` (stereo not shown) [Example 195, 2,2-Difluoro-1-{3-[2-isobutyl-6-(4-trifluoromethyl-pyridin-2-ylamino)-pyrimidin-4-yl]-piperidin-1-yl}-ethanone], 143 nM. The same measure for `CC(C)(C)c1ccnc(Nc2cc(C3CCNCC3)nc(N3CCC(F)(F)C3)n2)c1` [Example 200, (4-tert-Butyl-pyridin-2-yl)-[2-(3,3-difluoro-pyrrolidin-1-yl)-6-piperidin-4-yl-pyrimidin-4-yl]-amine]: 8.34 nM; for `FC1(F)CCN(c2nc(Nc3cc(-c4cccs4)ccn3)cc(C3CCNCC3)n2)C1` [Example 201, [2-(3,3-Difluoro-pyrrolidin-1-yl)-6-piperidin-4-yl-pyrimidin-4-yl]-(4-thiophen-2-yl-pyridin-2-yl)-amine]: 3.2 nM.

As for `C[C@@H]1CCCN1c1nc(Nc2cc(C3CC3)ccn2)cc(C2CCNCC2)n1` [Example 202, (4-Cyclopropyl-pyridin-2-yl)-[2-((R)-2-methyl-pyrrolidin-1-yl)-6-piperidin-4-yl-pyrimidin-4-yl]-amine], the Ki amounted to 0.95 nM. The same measure for `CC1CCCN1c1nc(Nc2cc(C(F)(F)F)ccn2)cc(C2CCN(C(=O)Cn3ccnc3)C2)n1` (stereo not shown) [Example 204, 2-Imidazol-1-yl-1-{3-[2-(2-methyl-pyrrolidin-1-yl)-6-(4-trifluoromethyl-pyridin-2-ylamino)-pyrimidin-4-yl]-pyrrolidin-1-yl}-ethanone]: 7.69 nM. The same measure for `CC(=O)N1CCC(c2cc(Nc3cc(C(F)(F)F)ccn3)nc(N3CCC(C(F)(F)F)C3)n2)CC1` (stereo not shown) [Example 206, 1-{4-[6-(4-Trifluoromethyl-pyridin-2-ylamino)-2-(3-trifluoromethyl-pyrrolidin-1-yl)-pyrimidin-4-yl]-piperidin-1-yl}-ethanone]: 43.3 nM. The result for `N#CC1(c2cc(Nc3cc(C(F)(F)F)ccn3)nc(Nc3cc(C(F)(F)F)ccn3)n2)CCOCC1` [Example 208, 4-[2,6-Bis-(4-trifluoro-methyl-pyridin-2-ylamino)-pyrimidin-4-yl]-tetrahydro-pyran-4-carbonitrile] reads 322 nM; that for `C[C@@H]1CCCN1c1nc(Nc2cc(C(F)(F)F)ccn2)cc(C2(C#N)CCOCC2)n1` [Example 209, 4-[2-((R)-2-Methyl-pyrrolidin-1-yl)-6-(4-trifluoromethyl-pyridin-2-ylamino)-pyrimidin-4-yl]-tetrahydro-pyran-4-carbonitrile], 76.8 nM. With `FC(F)(F)c1ccnc(Nc2cc(C3CCOCC3)nc(N3CC4(COC4)C3)n2)c1` [Example 218, [2-(2-Oxa-6-aza-spiro-[3.3]hept-6-yl)-6-(tetrahydro-pyran-4-yl)-pyrimidin-4-yl]-(4-trifluoromethyl-pyridin-2-yl)-amine], the Ki was determined as 288 nM.

As to `CC(=O)N1CCC(c2cc(Nc3cc(C(F)(F)F)ccn3)nc(N3CC(F)C(F)C3)n2)CC1` (stereo not shown) [Example 250, 1-{4-[2-(3,4-Difluoro-pyrrolidin-1-yl)-6-(4-trifluoromethyl-pyridin-2-ylamino)-pyrimidin-4-yl]-piperidin-1-yl}-ethanone], the Ki turned out to be 26.7 nM. The same measure for `FC(F)(F)c1ccnc(Nc2cc(C3CCOCC3)nc(N3C4CCC3COC4)n2)c1` [Example 251, [2-(3-Oxa-8-aza-bicyclo-[3.2.1]oct-8-yl)-6-(tetrahydro-pyran-4-yl)-pyrimidin-4-yl]-(4-trifluoro-methyl-pyridin-2-yl)-amine]: 183 nM. Turning to `FC(F)(F)c1ccnc(Nc2cc(C3CCOCC3)nc(N3CCc4nc[nH]c4C3)n2)c1` [Example 252, [2-(3,4,6,7-Tetrahydro-imidazo[4,5-c]pyridin-5-yl)-6-(tetrahydro-pyran-4-yl)-pyrimidin-4-yl]-(4-trifluoromethyl-pyridin-2-yl)-amine], the Ki was found to be 43.5 nM. The same measure for `FC(F)(F)c1ccnc(Nc2cc(C3CCOCC3)nc(N3CCn4ccnc4C3)n2)c1` [Example 253, [2-(5,6-Dihydro-8H-imidazo[1,2-a]pyrazin-7-yl)-6-(tetrahydro-pyran-4-yl)-pyrimidin-4-yl]-(4-trifluoromethyl-pyridin-2-yl)-amine]: 87.7 nM; for `O=C(C1CN(c2nc(Nc3cc(C(F)(F)F)ccn3)cc(C3CCOCC3)n2)C1)N1CCOCC1` [Example 260, Morpholin-4-yl-{1-[4-(tetrahydro-pyran-4-yl)-6-(4-trifluoromethyl-pyridin-2-ylamino)-pyrimidin-2-yl]-azetidin-3-yl}-methanone]: 347 nM. The same measure for `O=C(C1CCCO1)N1CCC(c2cc(Nc3cc(C(F)(F)F)ccn3)nc(N3CC(F)(F)C3)n2)C1` (stereo not shown) [Example 265, {3-[2-(3,3-Difluoro-azetidin-1-yl)-6-(4-trifluoro-methyl-pyridin-2-ylamino)-pyrimidin-4-yl]-pyrrolidin-1-yl}-(tetrahydro-furan-2-yl)-methanone]: 159 nM; for `CN1CCC(c2cc(Nc3cc(C(F)(F)F)ccn3)nc(N3CC4CC3CO4)n2)C1` (stereo not shown) [Example 274, [6-(1-Methyl-pyrrolidin-3-yl)-2-(2-oxa-5-aza-bicyclo[2.2.1]hept-5-yl)-pyrimidin-4-yl]-(4-trifluoromethyl-pyridin-2-yl)-amine]: 46.3 nM; for `O=C(C(F)F)N1CCC(c2cc(Nc3cc(C(F)(F)F)ccn3)nc(N3CC4CCC(C3)O4)n2)CC1` [Example 294, 2,2-Difluoro-1{-[2(8-oxa-3-aza-bicyclo[3.2.1]oct-3-yl)-6-(4-trifluoro-methyl-pyridin-2-ylamino)-pyrimidin-4-yl]-piperidin-1-yl}-ethanone]: 104 nM. The result for `FC(F)(F)c1ccnc(Nc2cc(C3CCOCC3)nc(N3CCCOCC3)n2)c1` [Example 295, [2-[1,4]Oxazepan-4-yl-6-(tetrahydro-pyran-4-yl)-pyrimidin-4-yl]-(4-trifluoromethyl-pyridin-2-yl)-amine] reads 82.7 nM; that for `FC(F)(F)c1ccnc(Nc2cc(C3CCOCC3)nc(N3CC4CCC(C3)O4)n2)c1` [Example 296, [2-(8-Oxa-3-aza-bicyclo-[3.2.1]oct-3-yl)-6-(tetra-hydro-pyran-4-yl)-pyrimidin-4-yl]-(4-trifluoro-methyl-pyridin-2-yl)-amine], 174 nM; that for `FC1(F)CN(c2nc(Nc3cc(C(F)(F)F)ccn3)cc(C3CCN(CC4CCOCC4)C3)n2)C1` (stereo not shown) [Example 307, {2-(3,3-Difluoro-azetidin-1-yl)-6-[1-(tetrahydro-pyran-4-ylmethyl)-pyrrolidin-3-yl]-pyrimidin-4-yl}-(4-trifluoromethyl-pyridin-2-yl)-amine], 31.9 nM.

Regarding `CN1CCC(c2cc(Nc3cc(C(F)(F)F)ccn3)nc(N3CC(C#N)C3)n2)C1` (stereo not shown) [Example 328, 1-[4-(1-Methyl-pyrrolidin-3-yl)-6-(4-trifluoromethyl-pyridin-2-ylamino)-pyrimidin-2-yl]-azetidine-3-carbonitrile], the inhibition constant Ki worked out at 147 nM. The same measure for `CN1CCCC(c2cc(Nc3cc(C(F)(F)F)ccn3)nc(N3CC4CCC(C3)O4)n2)C1` (stereo not shown) [Example 329, [6-(1-Methyl-piperidin-3-yl)-2-(8-oxa-3-aza-bicyclo[3.2.1]oct-3-yl)-pyrimidin-4-yl]-(4-trifluoro-methyl-pyridin-2-yl)-amine]: 70.1 nM.

For the compound `C[C@@H]1CCCN1c1nc(Nc2cc(C(F)(F)F)ccn2)cc(C2CCN(S(C)(=O)=O)CC2)n1` [Example 330, [6-(1-Methanesulfonyl-piperidin-4-yl)-2-((R)-2-methyl-pyrrolidin-1-yl)-pyrimidin-4-yl]-(4-trifluoromethyl-pyridin-2-yl)-amine], the Ki was found to be 31.8 nM.
